{"source": "patent US4957923A", "about": "“Diuretic or antihypertensive composition” (Fujisawa Pharmaceutical Co., Ltd., priority 1988, dated 1990)", "key": {"Female beagle dogs": {"system": "Female beagle dogs", "assay": "Diuretic action (beagle dogs)", "assay_type": "in vivo, dog (beagle)", "settings": "100 mg/kg p.o., interval not given, mean ± S.E.", "experimental": "Female beagle dogs weighing 8 to 10 kg were used (6 dogs per group). After an 18-hour fast, the animals were orally dosed with 5 ml/kg of suspensions of the drug in 0.5% methylcellulose and, at the same time, orally loaded with 15 ml/kg of physiological saline and the 0-6 hr and 6-24 hr urines were collected. Meanwhile, the dogs were additionally loaded with 20 ml/kg of physiological saline immediately after collection of the 0-6 hr urine. Na^+ in urine was determined with STAT/ION (Technicone).\nThe results were respectively converted to the amounts of excretion per kg body weight, which were then tabulated as the mean±S.E. for each dose level. The control group similarly received 0.5% methylcellulose instead of the drug."}, "DOCA hypertensive rats": {"system": "DOCA hypertensive rats", "assay": "Antihypertension action (DOCA hypertensive rats)", "assay_type": "in vivo, rat (Wistar)", "experimental": "Male Wistar rats, 10 weeks old, were subjected to left nephrectomy and 2 to 4 days after operation, deoxycorticosterone acetate was administered subcutaneously in a dose of 30 mg/ml/kg twice a week. The animals were given 1% saline for drinking water and the individuals showing a mean blood pressure of ≥150 mmHg at 15 weeks of age were submitted to the experiment. After catheterization, saline for drinking water was replaced with tap water. At the beginning of the experiment, the test rats had mean blood pressures from 152 to 204 mmHg, heart rates from 354 to 462 beats/min. and body weights from 232 to 318 g. 3~5 Animals per group were used.\n3 Or 4 days before the beginning of the experiment, one end of a catheter for blood pressure measurement was passed from the femoral artery to the abdominal aorta of each rat and the other end was passed beneath the skin and fixed in exposed position in the dorsocervical region. The drug was orally administered once a day for 5 consecutive days. The rats had been deprived of food for about 3 hours before drug administration. The blood pressure was measured before administration and 5 hours after administration of days 1, 3 and 5. At each blood pressure measurement, the mean blood pressure was observed via a pressure transducer connected to the dorsocervical end of the catheter for blood pressure measurement and the stabilized mean blood pressure was recorded.\nDrug was suspended and diluted using a 0.5% solution of methylcellulose and 5ml/kg of the suspension was orally administered."}, "Female SD rats": {"system": "Female SD rats", "assay": "Diuretic action (rats)", "assay_type": "in vivo, rat (SD)", "settings": "mean ± S.E.", "experimental": "Female SD rats aged 6 weeks (9 rats per dosage) were used. After an 18-hour fast, the rats were dosed with the test drug and, at the same time, orally loaded with 20 ml/kg of physiological saline. The rats were then placed in metabolism cages, 3 animals per cage, and the 0-6 hour and 6-24 hour urines were collected. Meanwhile, the animals were additionally loaded with 25 ml/kg of physiological saline immediately after collection of the 0-6 hour urine. Na^+ in urine was determined with STAT/ION II (Technicon).\nThe results were respectively converted to the amounts of excretion per kg rat body weight, which were then tabulated as the mean±S.E. for each dose level.\nThe drug was suspended in 0.5% methylcellulose at necessary concentrations and 5 ml/kg of each suspension was orally administered. The control group similarly received 0.5% methylcellulose only."}, "[1]": {"settings": "3.2 mg/kg p.o. once a day, Day 1 after 5 hr"}, "[2]": {"settings": "3.2 mg/kg p.o. once a day, Day 1 before administration (baseline)"}, "[3]": {"settings": "3.2 mg/kg p.o. once a day, Day 3 after 5 hr"}, "[4]": {"settings": "3.2 mg/kg p.o. once a day, Day 3 before administration"}, "[5]": {"settings": "3.2 mg/kg p.o. once a day, Day 5 after 5 hr"}, "[6]": {"settings": "3.2 mg/kg p.o. once a day, Day 5 before administration"}, "[7]": {"settings": "10 mg/kg p.o. once a day, Day 1 after 5 hr"}, "[8]": {"settings": "10 mg/kg p.o. once a day, Day 1 before administration (baseline)"}, "[9]": {"settings": "10 mg/kg p.o. once a day, Day 3 after 5 hr"}, "[10]": {"settings": "10 mg/kg p.o. once a day, Day 3 before administration"}, "[11]": {"settings": "10 mg/kg p.o. once a day, Day 5 after 5 hr"}, "[12]": {"settings": "10 mg/kg p.o. once a day, Day 5 before administration"}, "[13]": {"settings": "100 mg/kg p.o. once a day, Day 1 after 5 hr"}, "[14]": {"settings": "100 mg/kg p.o. once a day, Day 1 before administration (baseline)"}, "[15]": {"settings": "100 mg/kg p.o. once a day, Day 3 after 5 hr"}, "[16]": {"settings": "100 mg/kg p.o. once a day, Day 3 before administration"}, "[17]": {"settings": "100 mg/kg p.o. once a day, Day 5 after 5 hr"}, "[18]": {"settings": "100 mg/kg p.o. once a day, Day 5 before administration"}}}
{"smiles": "O=C(O)Cn1c(=O)n(Cc2ccc(Br)cc2F)c(=O)c2ccc(F)cc21", "note": "[Compound B, 2-[7-Fluoro-3-(4-bromo-2-fluorobenzyl)-1,2,3,4-tetrahydro-2,4-dioxoquinazolin-1-yl]acetic acid]", "values": [{"measurement": "Urine volume", "setting": "Female beagle dogs; control 5.8 ± 1.4", "result": "13.3 ± 2.6", "unit": "mL/kg"}, {"measurement": "Na^+ (urine)", "setting": "Female beagle dogs; control 544 ± 133", "result": "1068 ± 280", "unit": "μEq/kg"}, {"measurement": "Mean blood pressure", "setting": "DOCA hypertensive rats; [1]", "result": 176, "unit": "mm Hg"}, {"measurement": "Percentage of change (mean blood pressure)", "setting": "DOCA hypertensive rats; [1]", "result": -8.9, "unit": "%"}, {"measurement": "Mean blood pressure", "setting": "DOCA hypertensive rats; [2]", "result": 193, "unit": "mm Hg"}, {"measurement": "Percentage of change (mean blood pressure)", "setting": "DOCA hypertensive rats; [2]", "result": 0.0, "unit": "%"}, {"measurement": "Mean blood pressure", "setting": "DOCA hypertensive rats; [3]", "result": 160, "unit": "mm Hg"}, {"measurement": "Percentage of change (mean blood pressure)", "setting": "DOCA hypertensive rats; [3]", "result": -17.1, "unit": "%"}, {"measurement": "Mean blood pressure", "setting": "DOCA hypertensive rats; [4]", "result": 175, "unit": "mm Hg"}, {"measurement": "Percentage of change (mean blood pressure)", "setting": "DOCA hypertensive rats; [4]", "result": -9.3, "unit": "%"}, {"measurement": "Mean blood pressure", "setting": "DOCA hypertensive rats; [5]", "result": 161, "unit": "mm Hg"}, {"measurement": "Percentage of change (mean blood pressure)", "setting": "DOCA hypertensive rats; [5]", "result": -16.7, "unit": "%"}, {"measurement": "Mean blood pressure", "setting": "DOCA hypertensive rats; [6]", "result": 167, "unit": "mm Hg"}, {"measurement": "Percentage of change (mean blood pressure)", "setting": "DOCA hypertensive rats; [6]", "result": -13.5, "unit": "%"}, {"measurement": "Mean blood pressure", "setting": "DOCA hypertensive rats; [7]", "result": 148, "unit": "mm Hg"}, {"measurement": "Percentage of change (mean blood pressure)", "setting": "DOCA hypertensive rats; [7]", "result": -17.5, "unit": "%"}, {"measurement": "Mean blood pressure", "setting": "DOCA hypertensive rats; [8]", "result": 180, "unit": "mm Hg"}, {"measurement": "Percentage of change (mean blood pressure)", "setting": "DOCA hypertensive rats; [8]", "result": 0.0, "unit": "%"}, {"measurement": "Mean blood pressure", "setting": "DOCA hypertensive rats; [9]", "result": 132, "unit": "mm Hg"}, {"measurement": "Percentage of change (mean blood pressure)", "setting": "DOCA hypertensive rats; [9]", "result": -26.1, "unit": "%"}, {"measurement": "Mean blood pressure", "setting": "DOCA hypertensive rats; [10]", "result": 137, "unit": "mm Hg"}, {"measurement": "Percentage of change (mean blood pressure)", "setting": "DOCA hypertensive rats; [10]", "result": -23.3, "unit": "%"}, {"measurement": "Mean blood pressure", "setting": "DOCA hypertensive rats; [11]", "result": 143, "unit": "mm Hg"}, {"measurement": "Percentage of change (mean blood pressure)", "setting": "DOCA hypertensive rats; [11]", "result": -20.0, "unit": "%"}, {"measurement": "Mean blood pressure", "setting": "DOCA hypertensive rats; [12]", "result": 139, "unit": "mm Hg"}, {"measurement": "Percentage of change (mean blood pressure)", "setting": "DOCA hypertensive rats; [12]", "result": -22.5, "unit": "%"}, {"measurement": "Mean blood pressure", "setting": "DOCA hypertensive rats; [13]", "result": 151, "unit": "mm Hg"}, {"measurement": "Percentage of change (mean blood pressure)", "setting": "DOCA hypertensive rats; [13]", "result": -14.5, "unit": "%"}, {"measurement": "Mean blood pressure", "setting": "DOCA hypertensive rats; [14]", "result": 176, "unit": "mm Hg"}, {"measurement": "Percentage of change (mean blood pressure)", "setting": "DOCA hypertensive rats; [14]", "result": 0.0, "unit": "%"}, {"measurement": "Mean blood pressure", "setting": "DOCA hypertensive rats; [15]", "result": 130, "unit": "mm Hg"}, {"measurement": "Percentage of change (mean blood pressure)", "setting": "DOCA hypertensive rats; [15]", "result": -26.2, "unit": "%"}, {"measurement": "Mean blood pressure", "setting": "DOCA hypertensive rats; [16]", "result": 144, "unit": "mm Hg"}, {"measurement": "Percentage of change (mean blood pressure)", "setting": "DOCA hypertensive rats; [16]", "result": -18.4, "unit": "%"}, {"measurement": "Mean blood pressure", "setting": "DOCA hypertensive rats; [17]", "result": 135, "unit": "mm Hg"}, {"measurement": "Percentage of change (mean blood pressure)", "setting": "DOCA hypertensive rats; [17]", "result": -23.6, "unit": "%"}, {"measurement": "Mean blood pressure", "setting": "DOCA hypertensive rats; [18]", "result": 138, "unit": "mm Hg"}, {"measurement": "Percentage of change (mean blood pressure)", "setting": "DOCA hypertensive rats; [18]", "result": -22.3, "unit": "%"}, {"measurement": "Urine volume", "setting": "Female SD rats; 100 mg/kg p.o., 0-6 hr, control 13.2 ± 2.0", "result": "30.1 ± 1.5", "unit": "mL/kg"}, {"measurement": "Na^+ (urine)", "setting": "Female SD rats; 100 mg/kg p.o., 0-6 hr, control 1460 ± 173", "result": "2416 ± 101", "unit": "μEq/kg"}, {"measurement": "Urine volume", "setting": "Female SD rats; 100 mg/kg p.o., 6-24 hr, control 26.59 ± 2.24", "result": "33.69 ± 0.55", "unit": "mL/kg"}, {"measurement": "Na^+ (urine)", "setting": "Female SD rats; 100 mg/kg p.o., 6-24 hr, control 3830 ± 463", "result": "3940 ± 295", "unit": "μEq/kg"}, {"measurement": "Urine volume", "setting": "Female SD rats; 100 mg/kg p.o., total 0-24 hr, control 39.78 ± 4.26", "result": "63.75 ± 1.19", "unit": "mL/kg"}, {"measurement": "Na^+ (urine)", "setting": "Female SD rats; 100 mg/kg p.o., total 0-24 hr, control 5289 ± 636", "result": "6356 ± 311", "unit": "μEq/kg"}, {"measurement": "Urine volume", "setting": "Female SD rats; 320 mg/kg p.o., 0-6 hr, control 13.2 ± 2.0", "result": "37.9 ± 1.5", "unit": "mL/kg"}, {"measurement": "Na^+ (urine)", "setting": "Female SD rats; 320 mg/kg p.o., 0-6 hr, control 1460 ± 173", "result": "3021 ± 440", "unit": "μEq/kg"}, {"measurement": "Urine volume", "setting": "Female SD rats; 320 mg/kg p.o., 6-24 hr, control 26.59 ± 2.24", "result": "61.22 ± 6.20", "unit": "mL/kg"}, {"measurement": "Na^+ (urine)", "setting": "Female SD rats; 320 mg/kg p.o., 6-24 hr, control 3830 ± 463", "result": "5861 ± 194", "unit": "μEq/kg"}, {"measurement": "Urine volume", "setting": "Female SD rats; 320 mg/kg p.o., total 0-24 hr, control 39.78 ± 4.26", "result": "99.10 ± 6.64", "unit": "mL/kg"}, {"measurement": "Na^+ (urine)", "setting": "Female SD rats; 320 mg/kg p.o., total 0-24 hr, control 5289 ± 636", "result": "8882 ± 630", "unit": "μEq/kg"}]}
